The values that follow are results of earlier work, collected in patent US9394312B1, “Ibrutinib prodrugs, pharmaceutical compositions thereof, and methods of use” (priority 2015, dated 2016).

The conditions of the data set: humans, combined with a meal versus fasted.

Regarding `C=CC(=O)N1CCC[C@@H](n2nc(-c3ccc(Oc4ccccc4)cc3)c3c(N)ncnc32)C1` [ibrutinib], the “change of absolute bioavailability when combined with a meal” value is given as “doubled”.
